Target: T1, TbPLK^as (analogue-sensitive Trypanosoma brucei Polo-like kinase) (Trypanosoma brucei, UniProt Q57VI0, C57V/L118G)
T1 sequence (Q57VI0 1-768 C57V/L118G): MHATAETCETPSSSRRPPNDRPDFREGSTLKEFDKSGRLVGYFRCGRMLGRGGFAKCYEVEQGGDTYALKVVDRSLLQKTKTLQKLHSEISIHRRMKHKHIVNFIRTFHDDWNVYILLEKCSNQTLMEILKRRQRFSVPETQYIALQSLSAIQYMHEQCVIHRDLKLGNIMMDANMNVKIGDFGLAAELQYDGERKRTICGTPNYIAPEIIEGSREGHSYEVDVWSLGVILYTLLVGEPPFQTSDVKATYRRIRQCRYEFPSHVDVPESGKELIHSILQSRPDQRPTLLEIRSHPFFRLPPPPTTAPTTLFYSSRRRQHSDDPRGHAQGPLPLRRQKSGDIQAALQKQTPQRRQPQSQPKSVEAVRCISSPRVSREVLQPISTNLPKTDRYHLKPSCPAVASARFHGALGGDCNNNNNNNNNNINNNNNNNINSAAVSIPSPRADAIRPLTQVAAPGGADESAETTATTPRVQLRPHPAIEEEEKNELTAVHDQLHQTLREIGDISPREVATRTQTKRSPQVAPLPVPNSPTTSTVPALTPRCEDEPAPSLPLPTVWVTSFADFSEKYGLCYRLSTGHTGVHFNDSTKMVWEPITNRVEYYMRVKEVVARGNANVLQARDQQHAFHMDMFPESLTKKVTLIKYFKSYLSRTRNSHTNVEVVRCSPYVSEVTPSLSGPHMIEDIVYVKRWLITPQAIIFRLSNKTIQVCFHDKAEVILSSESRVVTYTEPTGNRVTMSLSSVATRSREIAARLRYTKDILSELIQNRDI
Type: biochemical

**Q.** `Cc1cccc(Cc2nn(C(C)(C)C)c3ncnc(N)c23)c1` [3MB-PP1] was tested. Which IC50 did it give?
**A.** The IC50 was roughly 250 nM.
